Source: the supplement of paper PMC11061612

Legend:
Prexasertib = compound: COc1cccc(OCCCN)c1-c1cc(Nc2cnc(C#N)cn2)n[nH]1 [Prexasertib]; settings: max 1 µM
Summary of the method: (§1)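 Cancer cell lines in 1536-well plates (7.5 μl DMEM/F12 or RPMI, 10% FBS) were held 24 hours at 37°C and 5% CO2 and then dosed for 72 hours at a final DMSO of typically 0.2%. Viability was taken from CellTiter-Glo 2.0 luminescence, scaled between blank-well and DMSO-well means. Curves were fitted as two-parameter logistic models with a non-linear mixed effects model, from which the single-agent IC50 was taken.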

Savolitinib = compound: C[C@@H](c1ccc2nccn2c1)n1nnc2ncc(-c3cnn(C)c3)nc21 [Savolitinib]; settings: max 1 µM
Summary of the method: as §1

Gefitinib = compound: COc1cc2ncnc(Nc3ccc(F)c(Cl)c3)c2cc1OCCCN1CCOCC1 [Gefitinib]; settings: max 10 µM
Summary of the method: as §1

MK-2206 = compound: NC1(c2ccc(-c3nc4ccn5c(=O)[nH]nc5c4cc3-c3ccccc3)cc2)CCC1 [MK-2206]; settings: max 10 µM
Summary of the method: as §1

AZD7648 = compound: Cc1cc2ncnn2cc1Nc1ncc2c(n1)n(C1CCOCC1)c(=O)n2C [AZD7648]; settings: max 10 µM
Summary of the method: as §1

Dasatinib = compound: CC1=C(C(=CC=C1)Cl)NC(=O)C2=CN=C(S2)NC3=CC(=NC(=N3)C)N4CCN(CC4)CCO [Dasatinib]; settings: max 2 µM
Summary of the method: as §1

AZD5153 = compound: COc1nnc2ccc(N3CCC(c4ccc(OCCN5CCN(C)C(=O)[C@H]5C)cc4)CC3)nn12 [AZD5153]; settings: max 1 µM
Summary of the method: as §1

AZD8186 = compound: C[C@@H](Nc1cc(F)cc(F)c1)c1cc(C(=O)N(C)C)cc2c(=O)cc(N3CCOCC3)oc12 [AZD8186]; settings: max 10 µM
Summary of the method: as §1

Olaparib = compound: O=C(c1cc(Cc2n[nH]c(=O)c3ccccc23)ccc1F)N1CCN(C(=O)C2CC2)CC1 [Olaparib]; settings: max 10 µM
Summary of the method: as §1

AZD4320 = compound: CN(CC[C@H](CSC1=CC=CC=C1)NC2=C(C=C(C=C2)S(=O)(=O)NC(=O)C3=CC=C(C=C3)N4CCC(CC4)[C@H](C5=CC=CC=C5C6=CC=C(C=C6)Cl)O)S(=O)(=O)C(F)(F)F)CCO [AZD4320]; settings: max 1 µM
Summary of the method: as §1

Palbociclib = compound: CC(=O)c1c(C)c2cnc(Nc3ccc(N4CCNCC4)cn3)nc2n(C2CCCC2)c1=O [Palbociclib]; settings: max 10 µM
Summary of the method: as §1

AZD1390 = compound: CC(C)n1c(=O)n(C)c2cnc3cc(F)c(-c4ccc(OCCCN5CCCCC5)nc4)cc3c21 [AZD1390]; settings: max 0.3 µM
Summary of the method: as §1

Carboplatin = compound: C1CC(C1)(C(=O)[O-])C(=O)[O-].N.N.[Pt+2] [Carboplatin]; settings: max 10 µM
Summary of the method: as §1

Lapatinib = compound: CS(=O)(=O)CCNCc1ccc(-c2ccc3ncnc(Nc4ccc(OCc5cccc(F)c5)c(Cl)c4)c3c2)o1 [Lapatinib]; settings: max 10 µM
Summary of the method: as §1

Gemcitabine = compound: Nc1ccn([C@@H]2O[C@H](CO)[C@@H](O)C2(F)F)c(=O)n1 [Gemcitabine]; settings: max 0.3 µM
Summary of the method: as §1

Doxorubicin = compound: COc1cccc2c1C(=O)c1c(O)c3c(c(O)c1C2=O)C[C@@](O)(C(=O)CO)C[C@@H]3O[C@H]1C[C@H](N)[C@H](O)[C@H](C)O1 [Doxorubicin]; settings: max 1 µM
Summary of the method: as §1

Paclitaxel = compound: CC(=O)O[C@H]1C(=O)[C@@]2(C)[C@H]([C@H](OC(=O)c3ccccc3)[C@]3(O)C[C@H](OC(=O)[C@H](O)[C@@H](NC(=O)c4ccccc4)c4ccccc4)C(C)=C1C3(C)C)[C@]1(OC(C)=O)CO[C@@H]1C[C@@H]2O [Paclitaxel]; settings: max 3 µM
Summary of the method: as §1

Alisertib = compound: COc1cc(Nc2ncc3c(n2)-c2ccc(Cl)cc2C(c2c(F)cccc2OC)=NC3)ccc1C(=O)O [Alisertib]; settings: max 10 µM
Summary of the method: as §1

AZD0156 = compound: CN(C)CCCOc1ccc(-c2ccc3ncc4c(c3c2)n(C2CCOCC2)c(=O)n4C)cn1 [AZD0156]; settings: max 3 µM
Summary of the method: as §1

AZD5363 = compound: C1CN(CCC1(C(=O)N[C@@H](CCO)C2=CC=C(C=C2)Cl)N)C3=NC=NC4=C3C=CN4 [AZD5363]; settings: max 10 µM
Summary of the method: as §1

5-Fluorouracil = compound: O=c1[nH]cc(F)c(=O)[nH]1 [5-Fluorouracil]; settings: max 20 µM
Summary of the method: as §1

AZD6738 = compound: C[C@@H]1COCCN1C2=NC(=NC(=C2)C3(CC3)[S@](=N)(=O)C)C4=C5C=CNC5=NC=C4 [AZD6738]; settings: max 10 µM
Summary of the method: as §1

Trametinib = compound: CC(=O)Nc1cccc(-n2c(=O)n(C3CC3)c(=O)c3c(Nc4ccc(I)cc4F)n(C)c(=O)c(C)c32)c1 [Trametinib]; settings: max 1 µM
Summary of the method: as §1

Taselisib = compound: Cc1nc(-c2cn3c(n2)-c2ccc(-c4cnn(C(C)(C)C(N)=O)c4)cc2OCC3)n(C(C)C)n1 [Taselisib]; settings: max 10 µM
Summary of the method: as §1

AZD1775 = compound: C=CCn1c(=O)c2cnc(Nc3ccc(N4CCN(C)CC4)cc3)nc2n1-c1cccc(C(C)(C)O)n1 [AZD1775]; settings: max 3 µM
Summary of the method: as §1

SN-38 = compound: CCc1c2c(nc3ccc(O)cc13)-c1cc3c(c(=O)n1C2)COC(=O)[C@]3(O)CC [SN-38]; settings: max 0.3 µM
Summary of the method: as §1

SRA737 = compound: N#Cc1cnc(Nc2cc(NC[C@H]3CNCCO3)c(C(F)(F)F)cn2)cn1 [SRA737]; settings: max 10 µM
Summary of the method: as §1

Crizotinib = compound: C[C@@H](Oc1cc(-c2cnn(C3CCNCC3)c2)cnc1N)c1c(Cl)ccc(F)c1Cl [Crizotinib]; settings: max 10 µM
Summary of the method: as §1

[1] = compound: O=C(Nc1ccc2[nH]nc(-c3ccncc3)c2c1)[C@@H]1CCN(CC(=O)N2CCN(c3ccc(-c4ncccn4)cc3)CC2)C1; settings: max 5 µM
Summary of the method: as §1

Venetoclax = compound: CC1(C)CCC(CN2CCN(c3ccc(C(=O)NS(=O)(=O)c4ccc(NCC5CCOCC5)c([N+](=O)[O-])c4)c(Oc4cnc5[nH]ccc5c4)c3)CC2)=C(c2ccc(Cl)cc2)C1 [Venetoclax]; settings: max 1 µM
Summary of the method: as §1

Selumetinib = compound: Cn1cnc2c(F)c(Nc3ccc(Br)cc3Cl)c(C(=O)NOCCO)cc21 [Selumetinib]; settings: max 10 µM
Summary of the method: as §1

AZD2811 = compound: CCN(CCO)CCCOc1ccc2c(Nc3cc(CC(=O)Nc4cccc(F)c4)[nH]n3)ncnc2c1 [AZD2811]; settings: max 1 µM
Summary of the method: as §1

SG3199 = compound: CC1=CN2[C@@H](C1)C=NC3=CC(=C(C=C3C2=O)OC)OCCCCCOC4=C(C=C5C(=C4)N=C[C@@H]6CC(=CN6C5=O)C)OC [SG3199]; settings: max 0.001 µM
Summary of the method: as §1

AZD5991 = compound: Cc1c2c(nn1C)CSCc1cc(n(C)n1)CSc1cc(c3ccccc3c1)OCCCc1c(C(=O)O)n(C)c3c-2c(Cl)ccc13 [AZD5991]; settings: max 1 µM
Summary of the method: as §1

Etoposide = compound: COc1cc([C@@H]2c3cc4c(cc3[C@@H](O[C@@H]3O[C@@H]5CO[C@@H](C)O[C@H]5[C@H](O)[C@H]3O)[C@H]3COC(=O)[C@H]23)OCO4)cc(OC)c1O [Etoposide]; settings: max 10 µM
Summary of the method: as §1

Row | Cell Line | IC50, cell viability 72 h (Prexasertib) [µM] | IC50, cell viability 72 h (Savolitinib) [µM] | IC50, cell viability 72 h (Gefitinib) [µM] | IC50, cell viability 72 h (MK-2206) [µM] | IC50, cell viability 72 h (AZD7648) [µM] | IC50, cell viability 72 h (Dasatinib) [µM] | IC50, cell viability 72 h (AZD5153) [µM] | IC50, cell viability 72 h (AZD8186) [µM] | IC50, cell viability 72 h (Olaparib) [µM] | IC50, cell viability 72 h (AZD4320) [µM] | IC50, cell viability 72 h (Palbociclib) [µM] | IC50, cell viability 72 h (AZD1390) [µM] | IC50, cell viability 72 h (Carboplatin) [µM] | IC50, cell viability 72 h (Lapatinib) [µM] | IC50, cell viability 72 h (Gemcitabine) [µM] | IC50, cell viability 72 h (Doxorubicin) [µM] | IC50, cell viability 72 h (Paclitaxel) [µM] | IC50, cell viability 72 h (Alisertib) [µM] | IC50, cell viability 72 h (AZD0156) [µM] | IC50, cell viability 72 h (AZD5363) [µM] | IC50, cell viability 72 h (5-Fluorouracil) [µM] | IC50, cell viability 72 h (AZD6738) [µM] | IC50, cell viability 72 h (Trametinib) [µM] | IC50, cell viability 72 h (Taselisib) [µM] | IC50, cell viability 72 h (AZD1775) [µM] | IC50, cell viability 72 h (SN-38) [µM] | IC50, cell viability 72 h (SRA737) [µM] | IC50, cell viability 72 h (Crizotinib) [µM] | IC50, cell viability 72 h [1] [µM] | IC50, cell viability 72 h (Venetoclax) [µM] | IC50, cell viability 72 h (Selumetinib) [µM] | IC50, cell viability 72 h (AZD2811) [µM] | IC50, cell viability 72 h (SG3199) [µM] | IC50, cell viability 72 h (AZD5991) [µM] | IC50, cell viability 72 h (Etoposide) [µM]
1 | NCI-H2009 (Lung Adenocarcinoma) | 0.846 | > 1 | > 10 | > 10 | > 10 | > 2 | > 1 | > 10 | > 10 | > 1 | > 10 | > 0.3 | > 10 | > 10 | > 0.3 | > 1 | 0.162 | 8.1 | > 3 | > 10 | > 20 | > 10 | 0.407 | 6.38 | 1.02 | 0.19 | > 10 | > 10 | > 5 | > 1 | > 10 | > 1 | > 0.001 | > 1 | > 10
2 | NCI-H2023 (Non-Small Cell Lung Carcinoma) | 0.0306 | > 1 | > 10 | > 10 | > 10 | > 2 | > 1 | > 10 | > 10 | > 1 | > 10 | > 0.3 | > 10 | > 10 | 0.134 | 0.225 | 0.531 | > 10 | > 3 | > 10 | 11.9 | 3.5 | > 1 | 3.87 | 2.02 | 0.11 | > 10 | > 10 | > 5 | > 1 | > 10 | > 1 | > 0.001 | > 1 | > 10
3 | NCI-H2452 (Mesothelioma) | 0.244 | > 1 | > 10 | > 10 | > 10 | 0.531 | > 1 | > 10 | > 10 | > 1 | > 10 | > 0.3 | > 10 | > 10 | > 0.3 | > 1 | 0.097 | 8.63 | > 3 | > 10 | > 20 | > 10 | > 1 | > 10 | 0.71 | > 0.3 | > 10 | > 10 | > 5 | > 1 | > 10 | > 1 | > 0.001 | > 1 | > 10
